We go through six compounds from ChEMBL document CHEMBL1158129, “Cyclic heptapeptides from the Jamaican sponge Stylissa caribica” (J Nat Prod, 2006).

Experiment [1] has as its system Mycobacterium intracellulare. Kind of experiment: Antibacterial activity against Mycobacterium intracellular. The format is functional, organism-based.
Experiment [2] has as its system Human immunodeficiency virus 1. Kind of experiment: Antiviral activity against HIV1 in human PBM cells. The format is functional, organism-based.
Experiment [3] has as its system Plasmodium falciparum. Kind of experiment: Antimalarial activity against Plasmodium falciparum W2. The class given is functional, organism-based.
The test system of a further experiment is Candida albicans. Kind of experiment: Antifungal activity against Candida albicans. The class given is functional, organism-based.
The next experiment relates to Microglia. Kind of experiment: Antiinflammatory activity against rat neonatal microglia. The format is functional, cell-based.
A further experiment has as its system Cryptococcus neoformans. Kind of experiment: Antifungal activity against Cryptococcus neoformans. The format is functional, organism-based.
A further experiment concerns Staphylococcus aureus. Kind of experiment: Antibacterial activity against Staphylococcus aureus. The format is functional, organism-based.
Another experiment deals with Aspergillus fumigatus. Kind of experiment: Antifungal activity against Aspergillus fumigatus. The class given is functional, organism-based.
Experiment [4] deals with Plasmodium falciparum. Kind of experiment: Antimalarial activity against Plasmodium falciparum D6. The class given is functional, organism-based.
In a further experiment the test system is Pseudomonas aeruginosa. Kind of experiment: Antibacterial activity against Pseudomonas aeruginosa. The class given is functional, organism-based.
The subject of experiment [5] is Mycobacterium tuberculosis. Kind of experiment: Antimycobacterial activity against Mycobacterium tuberculosis. The class given is functional, organism-based.
Experiment [6] deals with Mycobacterium tuberculosis. Kind of experiment: Antimycobacterial activity against Mycobacterium tuberculosis at 128 ug/mL. The format is functional.
The subject of a further experiment is Leishmania donovani. Kind of experiment: Antileishmanial activity against Leishmania donovani. The format is functional, organism-based.
A further experiment deals with Bel-7402. Kind of experiment: Cytotoxicity against human Bel-7402. The class given is functional. As to conditions: read-out: ED50 (the source's name).

Converted amounts (≈) assume the structure as drawn. The source made the active and inactive calls. The rule behind the calls is not given here. Peptide text beside a SMILES is read from it. Where only a bound is given, the exact number is not on record here.

`CC[C@H](C)[C@@H]1NC(=O)[C@@H]2CCCN2C(=O)[C@H](Cc2ccccc2)NC(=O)[C@@H]2CCCN2C(=O)[C@@H]2CCCN2C(=O)[C@H](Cc2ccc(O)cc2)NC(=O)[C@@H]2CCCN2C1=O` (cyclo(FPIPYPP)): the outcome (in experiment [1]; in experiment [2]; in the experiment on Plasmodium falciparum [3]; with Candida albicans; in the experiment with Microglia; in the experiment with Cryptococcus neoformans) was inactive. Further, the result (in the experiment with Staphylococcus aureus; in the experiment with Aspergillus fumigatus; in the experiment with Plasmodium falciparum [4]; in the experiment on Pseudomonas aeruginosa; in experiment [5]) was inactive.

Turning to `CC[C@H](C)[C@@H]1NC(=O)[C@@H]2CCCN2C(=O)[C@H](Cc2ccc(O)cc2)NC(=O)[C@@H]2CCCN2C(=O)[C@H](CC(C)C)NC(=O)[C@@H]2CCCN2C(=O)[C@H](Cc2ccccc2)NC1=O` (cyclo(FPLPYPI)), the outcome (in [1]; in experiment [2]; in the experiment on Plasmodium falciparum [3]; in the experiment on Candida albicans; with Microglia; in the experiment on Cryptococcus neoformans) was inactive. Further, the result (in the experiment with Staphylococcus aureus; in the experiment on Aspergillus fumigatus; in the experiment on Plasmodium falciparum [4]; in the experiment on Pseudomonas aeruginosa; in experiment [5]) was inactive.

With `Nc1ncc(/C=C/CNC(=O)c2cc(Br)c(Br)[nH]2)[nH]1` [OROIDIN], in experiment [6], the inhibition (in general, the share of the control response that was lost under treatment) at 128 µg/mL worked out at 71%. Further, the outcome (in experiment [2]; with Leishmania donovani; in the experiment with Cryptococcus neoformans) was inactive. The midpoint of inhibition in the experiment with Plasmodium falciparum [4], the IC50, lay at 1.2 µg/mL (≈ 3.08 µM).

On to `CC(C)C[C@@H]1NC(=O)[C@H]([C@@H](C)O)NC(=O)[C@@H]2CCCN2C(=O)CNC(=O)[C@H](Cc2ccccc2)NC(=O)[C@@H]2CCCN2C(=O)[C@H](Cc2c[nH]c3ccccc23)NC1=O` [PHAKELLISTATIN 13] (cyclo(FGPTLWP)), for which the EC50 in the experiment with Bel-7402 was less than 0.01 µg/mL.

Turning to `Nc1nc([C@H]2[C@H](CNC(=O)c3cc(Br)c[nH]3)[C@@H](CNC(=O)c3cc(Br)c[nH]3)[C@@H]2c2c[nH]c(N)n2)c[nH]1` [SCEPTRIN], the outcome (in experiment [6]; in experiment [2]; with Leishmania donovani) was inactive. Moreover, in the experiment on Cryptococcus neoformans, half-maximal inhibition (IC50) was put at 3.5 µg/mL (≈ 5.64 µM).

With `Nc1ncc(C2=CCNC(=O)c3[nH]c(Br)c(Br)c32)[nH]1` [STEVENSINE], the inhibition at 128 µg/mL in experiment [6] amounted to 95%. For the same compound, the result (in experiment [2]; in the experiment on Leishmania donovani; in the experiment with Cryptococcus neoformans) was inactive. Further, the half-maximal inhibitory concentration (IC50) (as a rule, the midpoint of a concentration-inhibition curve) with Plasmodium falciparum [4] was found to be 1.8 µg/mL (≈ 4.65 µM).
